Assay [1] deals with three strains of Staphylococcus aureus isolated from the vaginal secretion of patients with vaginitis. In words: Growth in enrichment broth (turbidity after 24 hours), clinical strains. In kind it is cell-based. An excerpt: (§1) a. Experimental strains, three strains of Escherichia coli and three strains of Staphylococcus aureus, which were all isolated from the vaginal secretion of patients with vaginitis.
(§2) b. Enrichment broth, which contained 1 percent of yeast extract powder, 9 percent of sucrose, 0.025 percent of manganese sulfate (MnSO4.4H2O), 0.058 percent of magnesium sulfate (MgSO4.7H2O), and 0.9 percent of lactic acid, the pH value of the broth was adjusted to 4.8, and the enrichment broth was sterilized for later use;
(§3) (2). Experimental groups: the requirements for aseptic operation technique were strictly followed to prepare the sterile test tubes:
(§4) a. sodium benzoate group: each test tube contained 5 milliliters of enrichment broth, and was added in 0.05 percent (weight/volume) sodium benzoate;
(§5) b. 2-phenylethanol group: each test tube contained 5 milliliters of enrichment broth, and was added in 0.05 percent (weight/volume) of 2-phenylethanol;
(§6) c. sodium propionate group: each test tube contained 5 milliliters of enrichment broth, and was added in 0.25 percent (weight/volume) of sodium propionate;
(§7) d. “a group of the combinations of sodium benzoate and sodium propionate”: each test tube contained 5 milliliters of enrichment broth, and was added in 0.05 percent (weight/volume) of sodium benzoate and 0.25 percent (weight/volume) of sodium propionate;
(§8) e. “a group of the combinations of sodium benzoate and 2-phenylethanol”: each test tube contained 5 milliliters of enrichment broth, and was added in 0.05 percent (weight/volume) of sodium benzoate and 0.05 percent (weight/volume) of 2-phenylethanol;
(§9) f. “a group of the combinations of sodium propionate and 2-phenylethanol”: each test tube contained 5 milliliters of enrichment broth, and was added in 0.25 percent (weight/volume) of sodium propionate and 0.05 percent (weight/volume) of 2-phenylethanol;
(§10) g. “a group of the combinations of sodium benzoate, sodium propionate and 2-phenylethanol”: each test tube contained 5 milliliters of enrichment broth, and was added in 0.05 percent (weight/volume) of sodium benzoate, 0.25 percent (weight/volume) of sodium propionate, and 0.05 percent (weight/volume) of 2-phenylethanol;
(§11) h. positive control: one tube that contained 5 milliliters of enrichment broth without adding in any of the 2-phenylethanol, sodium benzoate, and sodium propionate, but inoculated the suspension of Escherichia coli or Staphylococcus aureus.
(§12) i. negative control: one tube that contained 5 milliliters of enrichment broth without adding in any of the 2-phenylethanol, sodium benzoate, and sodium propionate, and not inoculated the suspension of Escherichia coli or Staphylococcus aureus.
(§13) The requirements for aseptic operation technique were strictly followed to prepare the bacterial suspensions. The colonies of Escherichia coli and Staphylococcus aureus were diluted with physiological saline respectively to prepare bacterial suspension. The turbidities of the Escherichia coli suspension and the Staphylococcus aureus suspension were adjusted to 0.5 MCF (about 10^8 CFU/ml) by a turbidimeter. 1 milliliter of the 0.5 MCF bacterial suspensions were added into 9 milliliters of the enrichment broth respectively, so each bacterial solution was diluted for ten times to contain 10^7 CFU/ml of bacterial organisms.
(§14) The requirements for aseptic operation technique were strictly followed to take 100 microliters of the prepared bacterial suspensions respectively, and to add the bacterial suspensions into the aforesaid test tubes from a to h as well as positive control tube. No bacterial suspension was added into the negative control tube i.
(§15) The above tubes were cultured in a biochemical incubator at 37° C. for 24 hours, then turbidity changes of the test tube solutions were observed and recorded.
(§16) Remark: “+” means the growth of bacteria; “−” means no growth of bacteria.

Assay [2] deals with three strains of Escherichia coli isolated from the vaginal secretion of patients with vaginitis. The description is as above. In kind it is cell-based.
Text: as §1, §2, §3, §4, §5, §6, §7, §8, §9, §10, §11, §12, §13, §14, §15, §16

[3] abbreviates: 0.05 percent (weight/volume) in enrichment broth pH 4.8, 37° C. 24 hours.
Setting [4] is: 0.25 percent (weight/volume) in enrichment broth pH 4.8, 37° C. 24 hours.

The text below walks through data of US20190231748A1, “COMPOSITION FOR VAGINA AND ANTIMICROBIAL AGENT COMBINATION FOR USE IN PREPARING COMPOSITION FOR VAGINA” (Shenzhen Eulikan Biotechnology Co., Ltd., priority 2016, published 2019).

Consider `OCCc1ccccc1` [2-phenylethanol], for which the “could inhibit the growth of Staphylococcus aureus (agent alone, words)” value in assay [1] (setting [3]) is recorded as “no one of the three antimicrobial agents”. For the same compound, in assay [2] (setting [3]), the “could inhibit the growth of Escherichia coli (agent alone, words)” value is reported as “no one of the three antimicrobial agents”.

Regarding `CCC(=O)[O-].[Na+]` [sodium propionate], the “could inhibit the growth of Staphylococcus aureus (agent alone, words)” value in assay [1] (setting [4]) is “no one of the three antimicrobial agents”. In assay [2] (setting [4]), the “could inhibit the growth of Escherichia coli (agent alone, words)” value was “no one of the three antimicrobial agents”.
